Measured values as given in US20240166641A1, “HETEROCYCLES AND USES THEREOF” (Kumquat Biosciences Inc., priority 2021, published 2024).

Legend:
PTPN2 = target: T1, PTPN2 (Homo sapiens, UniProt P17706); assay: Phosphatase activity assay (Bio-Biochem-DiFMUP), PTPN2; type: biochemical; conditions: DiFMUP substrate, room temperature
T1 sequence (P17706 1-415): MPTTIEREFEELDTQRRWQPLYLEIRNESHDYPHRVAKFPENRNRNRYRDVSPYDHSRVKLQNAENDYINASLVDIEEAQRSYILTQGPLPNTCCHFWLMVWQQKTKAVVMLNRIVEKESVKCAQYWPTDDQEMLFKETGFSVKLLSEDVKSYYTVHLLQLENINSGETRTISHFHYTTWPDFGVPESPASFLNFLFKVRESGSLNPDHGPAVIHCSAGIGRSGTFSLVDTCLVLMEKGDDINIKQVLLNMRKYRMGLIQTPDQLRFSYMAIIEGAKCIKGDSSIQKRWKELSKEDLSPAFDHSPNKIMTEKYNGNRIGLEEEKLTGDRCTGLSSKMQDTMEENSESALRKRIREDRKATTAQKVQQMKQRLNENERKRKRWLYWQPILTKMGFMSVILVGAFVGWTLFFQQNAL
Source text: (§1) The selectivity and potency of a small molecule PTPN2 inhibitor as provided herein (e.g., a derivative of Formula I, II, III, IV; or sub-formulae thereof) against one or more protein tyrosine phosphatase (PTP) enzymes, and specifically against PTPN2, can be assessed in various ways. The one or more PTP enzymes comprise Mycobacterium protein tyrosine phosphatase A (mPTPA), Mycobacterium protein tyrosine phosphatase B (mPTPB), PTPN1 (i.e., PTP1B), PTPN2 (i.e., TC-PTP), SHP-1, SHP-2, FAP-1, Meg2, HePTP, Laforin, VHX, VHR, LMWPTP, Cdcl4A, LAR, CD45, PTPRG, a fragment thereof, a variant thereof, and a combination thereof. Selectivity and potency of a small molecule PTPN2 inhibitor is evaluated using a PTP activity inhibition assay. The assay is performed using a buffer comprising 50 millimolar (mM) Bis-Tris (pH=6.3), 2 mM EDTA, and 5 mM N,N′-dimethyl-N,N′-bis(mercaptoacetyl)hydrazine (DMH). The assay is performed using a phosphated substrate, e.g., 10 mM fluorescein diphosphate (FDP) that is stored at −20° C. Alternatively or in addition to, the assay is performed using 10 mM DiFMUP as a phosphated substrate. Each PTP enzyme is diluted in an enzyme dilution buffer comprising 50 mM Bis-Tris (pH=6.3), 2 mM EDTA, 5 mM DMH, 20% (vol./vol.) glycerol, and 0.01% (vol./vol.) Triton X-100.
(§2) The assay is carried out at room temperature in 96 well plates. A reaction mixture of 170 microliter (μL) of the assay buffer comprising 10 μM FDP or DiFMIUP is added to each well. A 10 μL volume of (i) a compound disclosed herein (e.g., PTPN2 inhibitor) dissolved in DMSO at one of 10 concentrations from a serial dilution or (ii) DMSO alone for control is added to each well. The reaction is initiated by adding 20 μL of a PTP enzyme (e.g., PTPN2) that is diluted in the enzyme dilution buffer. The phosphatase activity of the PTP enzyme is assessed by monitoring appearance of a fluorescent product (e.g., fluorescein monophosphate (FMP) from FDP, or 6,8-difluoro-7-hydroxyl-4-coumarin (DiFMU) from DiFMUP) continuously for about 15 to 30 minutes, using the SpectraMax® Gemini™ XPS Microplate Spectrofluorometer (Molecular Devices®) with excitation of 440 nm and emission at 530 nm (cutoff filter at 525 nm) for FMP and excitation at 360 nm and emission at 450 nm (cutoff filter at 435 nm) for DiFMU. The rate (e.g., the initial rate) of FMP or DiFMU formation is plotted against the concentration of the small molecule PTPN2 inhibitor, and the data is fitted (e.g., using a 4-parameter equation) to determine the inflection point of the fit as the IC50 of the small molecule PTPN2 inhibitor for a specific enzyme. Table 6 summarizes the IC50 values of compounds disclosed herein against PTPN2 and PTPN1.

PTP1B = target: T2, PTP1B (Homo sapiens, UniProt P18031); assay: Phosphatase activity assay (Bio-Biochem-DiFMUP), PTP1B; type: biochemical; conditions: DiFMUP substrate, room temperature
T2 sequence (P18031 1-435): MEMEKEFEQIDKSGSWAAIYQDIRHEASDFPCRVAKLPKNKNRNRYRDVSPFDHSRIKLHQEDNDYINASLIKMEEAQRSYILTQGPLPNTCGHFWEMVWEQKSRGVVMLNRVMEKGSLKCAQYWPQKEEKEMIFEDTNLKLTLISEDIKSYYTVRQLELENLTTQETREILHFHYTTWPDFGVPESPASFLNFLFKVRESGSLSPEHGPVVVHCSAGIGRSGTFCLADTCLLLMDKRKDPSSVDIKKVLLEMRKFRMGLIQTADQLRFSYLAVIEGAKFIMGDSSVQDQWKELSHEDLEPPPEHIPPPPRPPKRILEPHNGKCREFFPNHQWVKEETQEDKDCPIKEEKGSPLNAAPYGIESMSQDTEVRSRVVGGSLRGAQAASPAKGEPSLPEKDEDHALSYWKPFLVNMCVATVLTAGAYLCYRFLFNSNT
Source text: as §1, §2

Structure (SMILES): Cn1c(=O)c(NCCC#N)cc2cc(N3CC(=O)NS3(=O)=O)c(O)cc21 [Compound 164]
- IC50 (PTPN2): ≤ 1000 nM
- IC50 (PTP1B): ≤ 1000 nM

Structure (SMILES): O=C1CN(c2cc3nc(OCCN4CCC4)ccc3cc2O)S(=O)(=O)N1 [Compound 163]
- IC50 (PTPN2): > 10000 nM
- IC50 (PTP1B): > 10000 nM

Structure (SMILES): CC(C)Oc1cc2c(F)c(N3CC(=O)NS3(=O)=O)c(O)cc2n(C)c1=O [Compound 156]
- IC50 (PTPN2): ≤ 1000 nM
- IC50 (PTP1B): ≤ 1000 nM

Structure (SMILES): Cn1c(=O)c(NCCCCC#N)cc2cc(N3CC(=O)NS3(=O)=O)c(O)cc21 [Compound 193]
- IC50 (PTPN2): ≤ 1000 nM
- IC50 (PTP1B): ≤ 1000 nM

Structure (SMILES): Cn1c(=O)c(NCCC2CC2)cc2cc(N3CC(=O)NS3(=O)=O)c(O)cc21 [Compound 168]
- IC50 (PTPN2): 1000 to 10000 nM
- IC50 (PTP1B): ≤ 1000 nM

Structure (SMILES): CC(C)CCn1ccc2cc(O)c(N3CC(=O)NS3(=O)=O)c(F)c2c1=O [Compound 157]
- IC50 (PTPN2): 1000 to 10000 nM
- IC50 (PTP1B): 1000 to 10000 nM

Structure (SMILES): CN1CCc2cc(O)c(N3CC(=O)NS3(=O)=O)cc2C1=O [Compound 104]
- IC50 (PTPN2): > 10000 nM
- IC50 (PTP1B): > 10000 nM

Structure (SMILES): O=C1CN(c2cc3nc(C4CCOC4)ccc3cc2O)S(=O)(=O)N1 (stereo not shown) [Compound 147]
- IC50 (PTPN2): 1000 to 10000 nM
- IC50 (PTP1B): ≤ 1000 nM

Structure (SMILES): C[C@@H](Nc1cc2cc(N3CC(=O)NS3(=O)=O)c(O)cc2n(C)c1=O)c1ccccc1 [Compound 162]
- IC50 (PTPN2): ≤ 1000 nM
- IC50 (PTP1B): ≤ 1000 nM

Structure (SMILES): CC(C)CCN1Cc2cc(C3CC(=O)NS3(=O)=O)c(O)cc2N(C)C1=O (stereo not shown) [Compound 111, 5-(7-hydroxy-3-isopentyl-1-methyl-2-oxo-1,2,3,4-tetrahydroquinazolin-6-yl)isothiazolidin-3-one 1,1-dioxide]
- IC50 (PTPN2): > 10000 nM
- IC50 (PTP1B): > 10000 nM

Structure (SMILES): Cn1c(=O)c(NCC(C)(F)F)cc2cc(N3CC(=O)NS3(=O)=O)c(O)cc21 [Compound 173]
- IC50 (PTPN2): ≤ 1000 nM
- IC50 (PTP1B): ≤ 1000 nM

Structure (SMILES): CC(C)CCN(C)c1ccc2cc(O)c(N3CC(=O)NS3(=O)=O)cc2n1 [Compound 121]
- IC50 (PTPN2): 1000 to 10000 nM
- IC50 (PTP1B): 1000 to 10000 nM

Structure (SMILES): Cn1c(=O)c(NCCC2CCCC2)cc2c(F)c(N3CC(=O)NS3(=O)=O)c(O)cc21 [Compound 179]
- IC50 (PTPN2): ≤ 1000 nM
- IC50 (PTP1B): ≤ 1000 nM

Structure (SMILES): CC(C)CCOc1cc2cc(N3CC(=O)NS3(=O)=O)c(O)cc2n(C)c1=O [Compound 160]
- IC50 (PTPN2): ≤ 1000 nM
- IC50 (PTP1B): ≤ 1000 nM

Structure (SMILES): Cn1c(=O)c(NC2CCN(S(C)(=O)=O)C2)cc2cc(N3CC(=O)NS3(=O)=O)c(O)cc21 (stereo not shown) [Compound 191]
- IC50 (PTPN2): ≤ 1000 nM
- IC50 (PTP1B): ≤ 1000 nM

Structure (SMILES): O=C1CN(c2cc3nc(-c4cnn(CC5CC5)c4)ccc3cc2O)S(=O)(=O)N1 [Compound 188]
- IC50 (PTPN2): ≤ 1000 nM
- IC50 (PTP1B): ≤ 1000 nM

Structure (SMILES): O=C1CN(c2cc3nc(OCCc4ccc(F)cc4)ccc3cc2O)S(=O)(=O)N1 [Compound 189]
- IC50 (PTPN2): ≤ 1000 nM
- IC50 (PTP1B): ≤ 1000 nM
